{
  "source": "patent US9340563B2",
  "about": "“Salts of isophosphoramide mustard and analogs thereof” (priority 2007, dated 2016)",
  "key": {"[1]": {"test_system": "CPA-resistant human sarcoma cells (OS31 osteosarcoma)", "conditions": "mice with xenografts of CPA-resistant human sarcoma cells", "from_the_text": "CB17 female scid*/* mice (Taconic Farms, Germantown, N.Y.) were implanted with tumor subcutaneous flank tumors. […] For transplantation with OS1 tumor, mice were anesthetized with 4% isoflurane. After a small incision was made in the flank of the mouse, and a 4 mm by 4 mm section of tumor implanted subcutaneously.\nWhen the tumors were approximately 0.20 to 0.7 cm in diameter, tumor-bearing mice were randomized into groups of 5 to 8 mice with 1 treatment group and 1 control group. Treated mice received tasidotin at a dose of 90 mg/kg/day as an intraperitoneal injection daily for 5 days starting on days 1 and 21. Assuming a spherical tumor, the volume was determined by the formula: mm^3=*/6(D)d^2, where D is the maximal diameter and d is the diameter perpendicular to D. Volumes are expressed as relative tumor volumes (RTV) where the tumor volume at any given time point is divided by the starting tumor volume. The RTV for treated and control mice were measured a minimum of once per week.\nA partial response is defined as greater than 50% regression in tumor volume (RTV<0.5) but with a measurable tumor mass of greater than 0.10 cm^3. Loss of measurable tumor mass (<0.10 cm^3) at any point during the treatment period (6 weeks) was defined as a complete response (CR). […]"}, "[2]": {"test_system": "MX-1 human mammary tumors", "assay": "MX-1 human mammary tumor xenograft (Example 7)", "assay_type": "in vivo, athymic NCr-nu/nu mice", "protocol": "Each concentration was then aliquoted for daily use, frozen, stored at −20° C., and thawed for daily use.\nThe control groups were treated either ip or po with the vehicle (saline).\nStudy Duration: The study was terminated 50 days after tumor implantation."}, "MX-1 human mammary tumor": {"test_system": "MX-1 human mammary tumor", "assay": "MX-1 human mammary tumor xenograft (Example 8)", "from_the_text": "Animal Care: Five-weeks-old female athymic NCr-nu/nu mice were purchased from Harlan (Prattville, Ala.).\nTumor Model: Thirty-to-forty mg fragments of MX-1 human mammary tumor maintained in an in vivo passage were implanted sc in mice in the mammary fat pad using a 12-gauge trocar needle and allowed to grow. The day of tumor implantation was designated as day 0. […] A sufficient number of mice were implanted so that tumors in a weight range as narrow as possible were selected for the trial on the day of treatment initiation (day 6 after tumor implantation). Those animals selected with tumors in the proper size range were assigned to the various treatment groups so that the median tumor weights on the first day of treatment were as close to each other as possible (144-162 mg).\nAll dosing solutions were kept on ice after formulation and were administered within 30 min. All injections were administered on the basis of exact body weight with the injection volume being 0.2 mL/10 g body weight.\nDrug Treatment: The experiment consisted of 16 treatment groups of eight mice per group and two vehicle-treated control groups with ten mice each for a total of 148 mice on the first day of treatment. All agents (and vehicle) were administered daily for five consecutive days (q1d×5). […] The control groups were treated either ip (group no. 1) or po (group no. 10) with the vehicle (saline).\nTumor Measurements and Body Weights: The sc tumors were measured and the animals were weighed twice weekly starting with the first day of treatment. Tumor volume was determined by caliper measurements (mm) and using the formula for an ellipsoid sphere: L×W^2/2=mm^3, where L and W refer to the larger and smaller perpendicular dimensions collected at each measurement. This formula is also used to calculate tumor weight, assuming unit density (1 mm^3=1 mg.).\nStudy Duration: The study was terminated 52 days after tumor implantation. Any animal that became moribund or whose tumor became ulcerated and reached 4,000 mg was euthanized prior to study termination.\nParameters Evaluated: Number of nonspecific deaths, number of partial and complete tumor regressions, number of tumor-free survivors, and the individual animals' times to reach two tumor mass doublings were determined. The median time to reach two tumor mass doubling in the treatment groups (T) and control group (C) was used in the calculation of the overall delay in the growth of the median tumor (T-C).\nStatistical Analysis: The individual animal's time to reach two tumor mass doublings was used as the endpoint in a Student's t-test/Mann Whitney rank sum test in order to compare statistically the growth data between groups."}, "[3]": {"assay": "Solubility and reconstitution time (Example 16)", "assay_type": "physicochemical"}, "[4]": {"assay_type": "physicochemical", "conditions": "temperature and duration of storage"}, "[5]": {"assay_type": "physicochemical", "conditions": "pH 7 buffer, approximately 25° C."}, "pH (Example 16)": {"assay": "pH (Example 16)", "assay_type": "physicochemical"}},
  "note": "Like-named read-outs stand apart in the source and are kept apart here.",
  "data": [
    {"molecule": "O=P1(N(CCCl)CCCl)NCCCO1", "note": "(stereo not drawn) [CPA, cyclophosphamide]", "values": [
      {"measurement": "effect of therapy on sarcoma growth", "setting": "[1]", "value": "no effect"}
    ]},
    {"molecule": "O=P(O)(NCCCl)NCCCl", "note": "[IPM, isophosphoramide mustard]", "values": [
      {"measurement": "maximum loss in mean body weight", "setting": "[2]; ip q1d×5, 24 mg/kg/dose", "value": 5, "unit": "%"},
      {"measurement": "tumor growth delay (T-C)", "setting": "[2]; ip q1d×5, 24 mg/kg/dose", "value": 2.6, "unit": "days"},
      {"measurement": "maximum loss in mean body weight", "setting": "[2]; ip q1d×5, 36 mg/kg/dose", "value": 0, "unit": "%"},
      {"measurement": "maximum loss in mean body weight", "setting": "[2]; po q1d×5, 81 mg/kg/dose", "value": 5, "unit": "%"},
      {"measurement": "tumor growth delay (T-C)", "setting": "[2]; po q1d×5, 81 mg/kg/dose", "value": 4.0, "unit": "days"},
      {"measurement": "maximum loss in mean body weight", "setting": "[2]; po q1d×5, 120 mg/kg/dose", "value": 5, "unit": "%"},
      {"measurement": "tumor growth delay (T-C)", "setting": "[2]; po q1d×5, 120 mg/kg/dose", "value": 4.6, "unit": "days"},
      {"measurement": "maximum loss in mean body weight", "setting": "MX-1 human mammary tumor; ip q1d×5, 24 mg/kg/dose", "value": 2, "unit": "%"},
      {"measurement": "tumor growth delay (T-C)", "setting": "MX-1 human mammary tumor; ip q1d×5, 24 mg/kg/dose", "value": 0.3, "unit": "days"},
      {"measurement": "maximum loss in mean body weight", "setting": "MX-1 human mammary tumor; ip q1d×5, 36 mg/kg/dose", "value": 8, "unit": "%"},
      {"measurement": "maximum loss in mean body weight", "setting": "MX-1 human mammary tumor; po q1d×5, 81 mg/kg/dose", "value": 9, "unit": "%"},
      {"measurement": "tumor growth delay (T-C)", "setting": "MX-1 human mammary tumor; po q1d×5, 81 mg/kg/dose", "value": 2.3, "unit": "days"},
      {"measurement": "maximum loss in mean body weight", "setting": "MX-1 human mammary tumor; po q1d×5, 120 mg/kg/dose", "value": 18, "unit": "%"},
      {"measurement": "tolerability", "setting": "MX-1 human mammary tumor; po q1d×5, 120 mg/kg/dose", "value": "toxic"},
      {"measurement": "deaths", "setting": "MX-1 human mammary tumor; po q1d×5, 120 mg/kg/dose, eight mice per group", "value": "two deaths"},
      {"measurement": "Solubility at 25° C. (saline)", "setting": "[3]", "value": 14, "unit": "mg/mL"},
      {"measurement": "Current Stability Data Summary: No change in purity at", "setting": "[4]", "value": "−70° C., 2 years"},
      {"measurement": "% Purity", "setting": "[5]; 0.5 hours", "value": 89.5, "unit": "%"},
      {"measurement": "% Purity", "setting": "[5]; 1.0 hours", "value": 80.3, "unit": "%"},
      {"measurement": "% Purity", "setting": "[5]; 2.0 hours", "value": 64.8, "unit": "%"},
      {"measurement": "% Purity", "setting": "[5]; 3.0 hours", "value": 52.1, "unit": "%"},
      {"measurement": "% Purity", "setting": "[5]; reconstitution time 0 hours", "value": 100.00, "unit": "%"},
      {"measurement": "pH", "setting": "pH (Example 16)", "value": 3.02}
    ]}
  ]
}
